ChEMBL document CHEMBL1126862, “Substituted 3-phenylpiperidines: new centrally acting dopamine autoreceptor antagonists” (J Med Chem, 1993)

How the values were obtained:
[1] = species: Rattus norvegicus; assay: Evaluated for rat locomotor activity in nonhabituated rats at 100 umol / kg; assay type: functional
[2] = species: Rattus norvegicus; assay: Evaluated for rat locomotor activity in nonpretreated habituated rats at 25 umol / kg (p<0.05); assay type: functional
[3] = system: Rattus norvegicus; assay: Evaluated for 5-HTP increase in limbic region of nonpretreated rat at 100 umol / kg administered subcutaneously; assay type: functional, Limbic system
[4] = system: Rattus norvegicus; assay: Evaluated for DOPA accumulation in striatum of nonpretreated rat at 25 umol / kg administered subcutaneously; assay type: functional
[5] = system: Rattus norvegicus; assay: Evaluated for DOPA accumulation in striatum of reserpine pretreated rat at 100 umol / kg administered intraperitoneally; assay type: functional
[6] = species: Rattus norvegicus; assay: Evaluated for rat locomotor activity in nonhabituated rats at 25 umol / kg; assay type: functional
[7] = system: Rattus norvegicus; assay: Evaluated for DOPA accumulation in limbic region of reserpine pretreated rat at 100 umol / kg administered intraperitoneally (p<0.05); assay type: functional, Limbic system
[8] = molecular target: Sigma non-opioid intracellular receptor 1 (Rattus norvegicus, UniProt Q9R0C9); assay: Binding effinity for sigma receptor using 2 nM of [3H]DTG as radioligand, in membranes from brain minus cerebellum; assay type: tissue-based
Sigma non-opioid intracellular receptor 1, sequence (Q9R0C9 whole entry): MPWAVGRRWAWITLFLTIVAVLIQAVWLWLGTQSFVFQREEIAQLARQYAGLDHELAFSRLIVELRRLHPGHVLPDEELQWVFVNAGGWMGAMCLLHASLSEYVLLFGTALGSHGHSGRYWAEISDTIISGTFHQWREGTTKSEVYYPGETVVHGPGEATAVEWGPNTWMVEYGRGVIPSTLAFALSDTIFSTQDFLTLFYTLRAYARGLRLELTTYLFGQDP

[9] = species: Rattus norvegicus; assay: Rat locomotor activity in reserpine pretreated rats and accumulated counts / 30 min; assay type: functional
[10] = species: Rattus norvegicus; assay: Evaluated for rat locomotor activity in nonpretreated habituated rats at 100 umol / kg (p<0.05); assay type: functional
[11] = system: Rattus norvegicus; assay: Evaluated for 5-HTP increase in hemisphere region of nonpretreated rat at 100 umol / kg administered subcutaneously (p<0.05); assay type: functional
[12] = system: Rattus norvegicus; assay: Evaluated for DOPA accumulation in striatum of nonpretreated rat at 100 umol / kg administered subcutaneously (p<0.05); assay type: functional
[13] = system: Rattus norvegicus; assay: Evaluated for DOPA accumulation in limbic region of nonpretreated rat at 25 umol / kg administered subcutaneously; assay type: functional, Limbic system
[14] = system: Rattus norvegicus; assay: Evaluated for DOPA accumulation in limbic region of nonpretreated rat at 100 umol / kg administered subcutaneously (p<0.05); assay type: functional, Limbic system
[15] = molecular target: T1, D(4) dopamine receptor (Homo sapiens, UniProt P21917)
T1 sequence (P21917 whole entry): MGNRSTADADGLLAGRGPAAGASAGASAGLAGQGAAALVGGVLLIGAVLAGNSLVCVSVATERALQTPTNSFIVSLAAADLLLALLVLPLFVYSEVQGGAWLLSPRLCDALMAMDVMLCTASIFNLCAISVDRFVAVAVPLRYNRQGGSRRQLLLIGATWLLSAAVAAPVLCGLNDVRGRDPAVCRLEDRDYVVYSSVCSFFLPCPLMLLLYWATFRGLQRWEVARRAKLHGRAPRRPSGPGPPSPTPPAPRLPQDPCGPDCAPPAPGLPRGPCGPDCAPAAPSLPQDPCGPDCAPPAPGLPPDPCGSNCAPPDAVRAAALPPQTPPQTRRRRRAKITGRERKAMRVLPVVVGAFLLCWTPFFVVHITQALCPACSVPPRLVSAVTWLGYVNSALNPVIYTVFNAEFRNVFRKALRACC
Description: Binding towards dopamine receptor D4 expressed in CHO-K1 cells using [3H]spiperone

[16] = system: Rattus norvegicus; assay: Evaluated in rat striatum for the effect on dopamine release and metabolism in brain dialysis model after administration of 50 umol / kg subcutaneously; assay type: functional; set-up: unit not given beside the values
[17] = system: Rattus norvegicus; assay: Evaluated for rat locomotor activity in nonhabituated rats at 13 umol / kg administered subcutaneously; assay type: functional
[18] = species: Rattus norvegicus; assay: Rat locomotor activity in reserpine pretreated rats and accumulated counts / 30 min is calculated; assay type: functional
[19] = molecular target: T2, D(2) dopamine receptor (Bos taurus, UniProt P20288); assay: Evaluated for binding towards Dopamine receptor D2 using [3H]-spiperone as radioligand, in cloned mammalian receptors expressed in CHO-K1 cells; assay type: cell-based
T2 sequence (P20288 whole entry): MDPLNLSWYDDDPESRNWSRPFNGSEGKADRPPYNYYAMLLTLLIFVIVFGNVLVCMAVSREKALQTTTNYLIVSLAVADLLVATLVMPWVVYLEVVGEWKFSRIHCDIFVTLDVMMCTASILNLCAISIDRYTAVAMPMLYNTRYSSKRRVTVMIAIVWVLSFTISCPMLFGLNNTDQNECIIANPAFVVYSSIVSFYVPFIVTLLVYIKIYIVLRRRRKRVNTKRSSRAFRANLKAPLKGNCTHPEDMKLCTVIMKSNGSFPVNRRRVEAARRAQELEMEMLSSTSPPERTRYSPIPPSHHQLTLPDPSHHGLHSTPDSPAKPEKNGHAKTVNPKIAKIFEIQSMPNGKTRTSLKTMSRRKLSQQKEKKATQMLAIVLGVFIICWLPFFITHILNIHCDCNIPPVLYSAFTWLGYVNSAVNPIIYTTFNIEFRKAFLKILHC

[20] = system: Rattus norvegicus; assay: Evaluated for DOPA accumulation in striatum of nonpretreated rat at 52 umol / kg administered subcutaneously; assay type: functional
[21] = system: Rattus norvegicus; assay: Evaluated in rat accumbens for the effect on dopamine release and metabolism in brain dialysis model after administration of 50 umol / kg subcutaneously; assay type: functional
[22] = system: Rattus norvegicus; assay: Evaluated for rat locomotor activity in nonhabituated rats at 52 umol / kg administered subcutaneously; assay type: functional
[23] = molecular target: D(3) dopamine receptor (Homo sapiens, UniProt P35462)
D(3) dopamine receptor, sequence (P35462 whole entry): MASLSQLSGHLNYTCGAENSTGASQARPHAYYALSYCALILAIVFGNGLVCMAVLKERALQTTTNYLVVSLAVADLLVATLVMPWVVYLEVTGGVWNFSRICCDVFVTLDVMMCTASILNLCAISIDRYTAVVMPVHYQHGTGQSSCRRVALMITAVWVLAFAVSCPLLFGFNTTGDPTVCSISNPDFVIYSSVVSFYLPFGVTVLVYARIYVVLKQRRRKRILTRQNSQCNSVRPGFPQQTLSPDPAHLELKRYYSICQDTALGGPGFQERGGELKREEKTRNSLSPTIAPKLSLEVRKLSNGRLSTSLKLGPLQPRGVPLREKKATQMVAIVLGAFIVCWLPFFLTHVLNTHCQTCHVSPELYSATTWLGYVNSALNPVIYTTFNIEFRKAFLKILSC
Description: Binding towards Dopamine receptor D3 expressed in CHO-K1 cells using [3H]spiperone

[24] = system: Rattus norvegicus; assay: Evaluated for DOPA accumulation in limbic region of nonpretreated rat at 52 umol / kg administered subcutaneously; assay type: functional, Limbic system
[25] = system: Rattus norvegicus; assay: Evaluated in rat accumbens for the effect onDOPAC release and metabolism in brain dialysis model after administration of 50 umol / kg subcutaneously; assay type: functional
[26] = system: Rattus norvegicus; assay: Evaluated for DOPA accumulation in limbic region of nonpretreated rat at 13 umol / kg administered subcutaneously; assay type: functional, Limbic system
[27] = species: Rattus norvegicus; assay: Evaluated for rat locomotor activity in nonpretreated habituated rats at 25 umol / kg; assay type: functional
[28] = system: Rattus norvegicus; assay: Evaluated in rat striatum for the effect on DOPAC release and metabolism in brain dialysis model after administration of 50 umol / kg subcutaneously; assay type: functional; set-up: unit not given beside the values
[29] = molecular target: T3, D(2) dopamine receptor (Rattus norvegicus, UniProt P61169); assay: Evaluated for binding towards Dopamine receptor D2 using [3H]N-0437 as radioligand from rat striatal membrane
T3 sequence (P61169 whole entry): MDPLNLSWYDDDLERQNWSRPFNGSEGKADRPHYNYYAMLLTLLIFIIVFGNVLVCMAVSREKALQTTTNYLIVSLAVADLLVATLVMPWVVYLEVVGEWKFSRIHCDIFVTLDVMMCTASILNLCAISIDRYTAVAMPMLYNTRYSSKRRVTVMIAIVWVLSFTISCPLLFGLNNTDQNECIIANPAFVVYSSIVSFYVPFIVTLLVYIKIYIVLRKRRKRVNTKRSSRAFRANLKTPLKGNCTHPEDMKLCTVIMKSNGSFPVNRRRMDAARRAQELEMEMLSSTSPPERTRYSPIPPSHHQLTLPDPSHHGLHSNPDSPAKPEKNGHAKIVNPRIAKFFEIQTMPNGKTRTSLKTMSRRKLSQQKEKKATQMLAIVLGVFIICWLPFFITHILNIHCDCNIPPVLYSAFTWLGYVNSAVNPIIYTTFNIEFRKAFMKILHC

[30] = system: Rattus norvegicus; assay: Evaluated for DOPA accumulation in limbic region of reserpine pretreated rat at 52 umol / kg administered subcutaneously; assay type: functional, Limbic system
[31] = species: Rattus norvegicus; assay: Evaluated for rat locomotor activity in nonpretreated habituated rats at 100 umol / kg; assay type: functional; set-up: unit not given beside the values
[32] = system: Rattus norvegicus; assay: Evaluated for DOPA accumulation in striatum of nonpretreated rat at 13 umol / kg administered subcutaneously; assay type: functional
[33] = molecular target: T3, D(2) dopamine receptor; assay: Binding towards Dopamine receptor D2 using [3H]spiperone from rat striatal membrane
[34] = molecular target: T2, D(2) dopamine receptor; assay: Binding towards Dopamine receptor D2 expressed in CHO-K1 cells using [3H]U-86170; assay type: cell-based
[35] = system: Rattus norvegicus; assay: Evaluated for DOPA accumulation in striatum of reserpine pretreated rat at 52 umol / kg administered subcutaneously; assay type: functional
[36] = system: Rattus norvegicus; assay: Evaluated for DOPA accumulation in limbic region of reserpine pretreated rat at 100 umol / kg administered intraperitoneally; assay type: functional, Limbic system
[37] = system: Rattus norvegicus; assay: Evaluated in rat accumbens for the effect on DOPAC release and metabolism in brain dialysis model after administration of 50 umol / kg subcutaneously; assay type: functional
[38] = system: Rattus norvegicus; assay: Evaluated for rat locomotor activity in nonhabituated rats at 13 umol / kg administered intraperitoneally; assay type: functional
[39] = system: Rattus norvegicus; assay: Evaluated for DOPA accumulation in striatum of nonpretreated rat at 100 umol / kg administered subcutaneously; assay type: functional
[40] = Half life was estimated from the elimination phase of the blood concentration curves after peroral administration; assay type: ADME, organism-based; settings: po
[41] = system: Rattus norvegicus; assay: Evaluated for 5-HTP increase in hemisphere region of nonpretreated rat at 100 umol / kg administered subcutaneously; assay type: functional

SMILES | Activity [1] | Activity [3] | Activity [4] | Activity [5] | Activity [6] | IC50 [8] | Activity [13] | Ki [15] | Activity [16] | Activity [18] | Ki [19] | Activity [20] | Activity [21] | Ki [23] | Activity [24] | Activity [26] | Activity [27] | Activity [28] | Ki [29] | Activity [31] | other results
CCCN1CCC[C@H](c2cccc(OS(=O)(=O)C(F)(F)F)c2)C1 | 95 | 86 | 92 | 80 | 115 | 0.006 µM | 93 | – | – | – | – | – | – | – | – | – | – | – | – | – | Activity [2]: 30; Activity [7]: 75; Activity [9]: 2; Activity [10]: 34; Activity [11]: 86; Activity [12]: 80; Activity [14]: 82
CCCN[C@@H]1CCc2c(OC)cccc2[C@@H]1C | – | – | – | – | – | – | – | 0.117 µM | 285 | 11 | 0.158 µM | 400 | 313 | 0.026 µM | 253 | 223 | 300 | 315 | 0.3 µM | 350 | Activity [17]: 155; Activity [22]: 159; Activity [25]: 235; Activity [30]: 108; Activity [32]: 330; Ki [33]: 0.53 µM; Ki [34]: 0.145 µM; Activity [35]: 102
CCCN(CCC)[C@@H]1CCc2c(OC)cccc2[C@@H]1C | 70 | – | – | 109 | – | – | – | 0.048 µM | 209 | 29 | 0.018 µM | 370 | 231 | 0.004 µM | 245 | 180 | 220 | 307 | 0.1 µM | 220 | Activity [36]: 116; Activity [37]: 207; Activity [32]: 270; Ki [33]: 0.07 µM; Ki [34]: 0.013 µM; Activity [38]: 140
CCCN1CCC[C@@H](c2cccc(OS(=O)(=O)C(F)(F)F)c2)C1 | 129 | 102 | 221 | 89 | 128 | 0.032 µM | 139 | – | 208 | 25 | – | – | 153 | – | – | – | – | 162 | – | – | Activity [39]: 264; Activity [36]: 94; half-life [40]: 3.5 h; Activity [41]: 108; Activity [37]: 152
